Experimental data taken from patent US12691112B2, “FGFR tyrosine kinase inhibitors for the treatment of urothelial carcinoma” (Janssen Pharmaceutica NV, priority 2019, dated 2026).
Read-outs that look alike come from different tables or passages of the source.

System: subjects with metastatic or surgically unresectable urothelial cancer
Details: all-causality
Description: Study treatment was administered on 28-day cycles. […] Patients were randomized 1:1 to 28-day cycles to the following 2 regimens until a regimen was selected for further study: Regimen 1 (10 mg once daily intermittent (7 days on/7 days); Regimen 2 (6 mg once daily continuous). Randomization was stratified according to performance status (0 to 1 vs. 2), hemoglobin value (<10 vs. ≥10 g per dl), FGFR alteration type (mutation vs. fusion), prior treatment status (chemotherapy-resistant vs. chemotherapy naïve), and disease distribution (presence or absence of visceral [liver, lung, bone]metastases). Starting dose selection was based on phase 1 efficacy and tolerability.
Based on interim analysis and pharmacokinetic-pharmacodynamic modeling of serum phosphate levels, starting dose was increased to 8 mg per day continuous (Regimen 3). Thus, after interim analysis, this became a single-arm study. […] Treatment continued until disease progression or unacceptable adverse event(s) per investigator.
Safety was evaluated based on clinical laboratory tests, physical exams, electrocardiograms, and ophthalmology examinations. Adverse events and abnormalities were assessed by investigator and graded per NCI CTCAE v.4.0
Prophylactic measures were taken to minimize risk of common adverse events related to FGFR inhibition. To reduce risk of hyperphosphatemia, a low-phosphate diet was recommended for all patients (600 to 800 mg of dietary phosphate intake per day). To reduce the risk of skin effects, the application of alcohol-free emollient moisturizing cream and avoidance of unnecessary exposure to sunlight, soap, perfumed products, and hot baths was recommended. Patients were asked to keep their fingers and toes clean and nails trimmed to reduce risk of nail effects.
Additional ophthalmology examinations were performed if clinically indicated.

COc1cc(OC)cc(N(CCNC(C)C)c2ccc3ncc(-c4cnn(C)c4)nc3c2)c1 [erdafitinib, N-(3,5-dimethoxy-phenyl)-N′-(1-methylethyl)-N-[3-(1-methyl-1H-pyrazol-4-yl)quinoxalin-6-yl]ethane-1,2-diamine]
15 no.: Diarrhea, grade 2 (8 mg continuous, n = 99) | Weight decreased, any grade (8 mg continuous, n = 99)
6 no.: Hand-foot syndrome, grade 1 (8 mg continuous, n = 99) | Nail dystrophy, grade ≥ 3 (8 mg continuous, n = 99) | Nausea, grade 2 (8 mg continuous, n = 99) | Onycholysis, grade 1 (8 mg continuous, n = 99) | Anemia, grade ≥ 3 (10 mg intermittent, n = 33) | Constipation, grade 2 (10 mg intermittent, n = 33) | Decreased appetite, grade 2 (10 mg intermittent, n = 33)
45 no.: Dry mouth, any grade (8 mg continuous, n = 99)
12 no.: Fatigue, grade 1 (8 mg continuous, n = 99) | Hand-foot syndrome, grade 2 (8 mg continuous, n = 99) | Hyponatremia, any grade (8 mg continuous, n = 99) | Pain in extremity, any grade (8 mg continuous, n = 99)
32 no.: Dry skin, any grade (8 mg continuous, n = 99) | Fatigue, any grade (8 mg continuous, n = 99)
1 no.: Constipation, grade ≥ 3 (8 mg continuous, n = 99) | Dry eye, grade ≥ 3 (8 mg continuous, n = 99) | Dysgeusia, grade ≥ 3 (8 mg continuous, n = 99) | Dyspepsia, grade 2 (8 mg continuous, n = 99) | Hematuria, grade 2 (8 mg continuous, n = 99) | Hypomagnesemia, grade 2 (8 mg continuous, n = 99) | Hyponatremia, grade 1 (8 mg continuous, n = 99) | Nausea, grade ≥ 3 (8 mg continuous, n = 99) | Oropharyngeal pain, grade 2 (8 mg continuous, n = 99) | Oropharyngeal pain, grade ≥ 3 (8 mg continuous, n = 99) | Peripheral edema, grade ≥ 3 (8 mg continuous, n = 99) | Vomiting, grade 2 (8 mg continuous, n = 99) | Abdominal pain, grade ≥ 3 (10 mg intermittent, n = 33) | Alanine aminotransferase increased, any grade (10 mg intermittent, n = 33) | Alanine aminotransferase increased, grade 2 (10 mg intermittent, n = 33) | Anemia, grade 1 (10 mg intermittent, n = 33) | Anemia, grade 2 (10 mg intermittent, n = 33) | Back pain, grade 1 (10 mg intermittent, n = 33) | Back pain, grade 2 (10 mg intermittent, n = 33) | Blood creatinine increased, grade 2 (10 mg intermittent, n = 33) | Conjunctivitis, grade 2 (10 mg intermittent, n = 33)
4 no.: Diarrhea, grade ≥ 3 (8 mg continuous, n = 99) | Dry eye, grade 2 (8 mg continuous, n = 99) | Dyspnea, grade 1 (8 mg continuous, n = 99) | Insomnia, grade 1 (8 mg continuous, n = 99) | Alopecia, any grade (10 mg intermittent, n = 33) | Blood creatinine increased, any grade (10 mg intermittent, n = 33) | Conjunctivitis, any grade (10 mg intermittent, n = 33) | Decreased appetite, grade 1 (10 mg intermittent, n = 33)
50 no.: Diarrhea, any grade (8 mg continuous, n = 99)
24 no.: Dry skin, grade 1 (8 mg continuous, n = 99)
38 no.: Decreased appetite, any grade (8 mg continuous, n = 99)
9 no.: Hypomagnesemia, grade 1 (8 mg continuous, n = 99) | Peripheral edema, any grade (8 mg continuous, n = 99)
19 no.: Dry eye, any grade (8 mg continuous, n = 99)
21 no.: Hyperphosphatemia, grade 2 (8 mg continuous, n = 99) | Stomatitis, grade 1 (8 mg continuous, n = 99)
10 no.: Dyspepsia, grade 1 (8 mg continuous, n = 99) | Hematuria, any grade (8 mg continuous, n = 99) | Hypomagnesemia, any grade (8 mg continuous, n = 99) | Onycholysis, grade 2 (8 mg continuous, n = 99) | Oropharyngeal pain, any grade (8 mg continuous, n = 99) | Pain in extremity, grade 1 (8 mg continuous, n = 99) | Stomatitis, grade ≥ 3 (8 mg continuous, n = 99) | Vision blurred, grade 1 (8 mg continuous, n = 99) | Vomiting, grade 1 (8 mg continuous, n = 99) | Asthenia, any grade (10 mg intermittent, n = 33)
7 no.: Hematuria, grade 1 (8 mg continuous, n = 99) | Insomnia, any grade (8 mg continuous, n = 99) | Onychomadesis, any grade (8 mg continuous, n = 99) | Vision blurred, grade 2 (8 mg continuous, n = 99) | Weight decreased, grade 1 (8 mg continuous, n = 99) | Arthralgia, any grade (10 mg intermittent, n = 33)
26 no.: Stomatitis, grade 2 (8 mg continuous, n = 99)
18 no.: Decreased appetite, grade 1 (8 mg continuous, n = 99) | Fatigue, grade 2 (8 mg continuous, n = 99) | Onycholysis, any grade (8 mg continuous, n = 99)
11 no.: Dry mouth, grade 2 (8 mg continuous, n = 99) | Dyspepsia, any grade (8 mg continuous, n = 99) | Hyponatremia, grade ≥ 3 (8 mg continuous, n = 99) | Lacrimation increased, any grade (8 mg continuous, n = 99) | Paronychia, grade 2 (8 mg continuous, n = 99) | Urinary tract infection, grade 2 (8 mg continuous, n = 99) | Decreased appetite, any grade (10 mg intermittent, n = 33)
53 no.: Hyperphosphatemia, grade 1 (8 mg continuous, n = 99)
34 no.: Dry mouth, grade 1 (8 mg continuous, n = 99)
17 no.: Paronychia, any grade (8 mg continuous, n = 99) | Vision blurred, any grade (8 mg continuous, n = 99)
20 no.: Decreased appetite, grade 2 (8 mg continuous, n = 99) | Nausea, any grade (8 mg continuous, n = 99)
5 no.: Hand-foot syndrome, grade ≥ 3 (8 mg continuous, n = 99) | Nail dystrophy, grade 1 (8 mg continuous, n = 99) | Nail dystrophy, grade 2 (8 mg continuous, n = 99) | Onychomadesis, grade 2 (8 mg continuous, n = 99) | Peripheral edema, grade 1 (8 mg continuous, n = 99) | Pyrexia, grade 2 (8 mg continuous, n = 99) | Retinal detachment, any grade (8 mg continuous, n = 99) | Urinary tract infection, grade ≥ 3 (8 mg continuous, n = 99) | Abdominal pain, any grade (10 mg intermittent, n = 33) | Asthenia, grade 1 (10 mg intermittent, n = 33) | Back pain, any grade (10 mg intermittent, n = 33)
57 no.: Stomatitis, any grade (8 mg continuous, n = 99)
2 no.: Dyspnea, grade 2 (8 mg continuous, n = 99) | Dyspnea, grade ≥ 3 (8 mg continuous, n = 99) | Fatigue, grade ≥ 3 (8 mg continuous, n = 99) | Hematuria, grade ≥ 3 (8 mg continuous, n = 99) | Hyperphosphatemia, grade ≥ 3 (8 mg continuous, n = 99) | Onycholysis, grade ≥ 3 (8 mg continuous, n = 99) | Onychomadesis, grade 1 (8 mg continuous, n = 99) | Pain in extremity, grade 2 (8 mg continuous, n = 99) | Retinal detachment, grade 2 (8 mg continuous, n = 99) | Vomiting, grade ≥ 3 (8 mg continuous, n = 99) | Abdominal pain, grade 1 (10 mg intermittent, n = 33) | Abdominal pain, grade 2 (10 mg intermittent, n = 33) | Alopecia, grade 1 (10 mg intermittent, n = 33) | Alopecia, grade 2 (10 mg intermittent, n = 33) | Arthralgia, grade 2 (10 mg intermittent, n = 33) | Arthralgia, grade ≥ 3 (10 mg intermittent, n = 33) | Aspartate aminotransferase increased, any grade (10 mg intermittent, n = 33) | Aspartate aminotransferase increased, grade 1 (10 mg intermittent, n = 33) | Asthenia, grade ≥ 3 (10 mg intermittent, n = 33)
3 no.: Insomnia, grade 2 (8 mg continuous, n = 99) | Lacrimation increased, grade 2 (8 mg continuous, n = 99) | Paronychia, grade 1 (8 mg continuous, n = 99) | Paronychia, grade ≥ 3 (8 mg continuous, n = 99) | Peripheral edema, grade 2 (8 mg continuous, n = 99) | Retinal detachment, grade 1 (8 mg continuous, n = 99) | Arthralgia, grade 1 (10 mg intermittent, n = 33) | Asthenia, grade 2 (10 mg intermittent, n = 33) | Back pain, grade ≥ 3 (10 mg intermittent, n = 33) | Blood creatinine increased, grade 1 (10 mg intermittent, n = 33) | Conjunctivitis, grade 1 (10 mg intermittent, n = 33)
76 no.: Hyperphosphatemia, any grade (8 mg continuous, n = 99)
0 no.: Decreased appetite, grade ≥ 3 (8 mg continuous, n = 99) | Dry mouth, grade ≥ 3 (8 mg continuous, n = 99) | Dry skin, grade ≥ 3 (8 mg continuous, n = 99) | Dyspepsia, grade ≥ 3 (8 mg continuous, n = 99) | Hypomagnesemia, grade ≥ 3 (8 mg continuous, n = 99) | Hyponatremia, grade 2 (8 mg continuous, n = 99) | Insomnia, grade ≥ 3 (8 mg continuous, n = 99) | Lacrimation increased, grade ≥ 3 (8 mg continuous, n = 99) | Onychomadesis, grade ≥ 3 (8 mg continuous, n = 99) | Pain in extremity, grade ≥ 3 (8 mg continuous, n = 99) | Pyrexia, grade ≥ 3 (8 mg continuous, n = 99) | Retinal detachment, grade ≥ 3 (8 mg continuous, n = 99) | Urinary tract infection, grade 1 (8 mg continuous, n = 99) | Vision blurred, grade ≥ 3 (8 mg continuous, n = 99) | Weight decreased, grade ≥ 3 (8 mg continuous, n = 99) | Alanine aminotransferase increased, grade 1 (10 mg intermittent, n = 33) | Alanine aminotransferase increased, grade ≥ 3 (10 mg intermittent, n = 33) | Alopecia, grade ≥ 3 (10 mg intermittent, n = 33) | Aspartate aminotransferase increased, grade 2 (10 mg intermittent, n = 33) | Aspartate aminotransferase increased, grade ≥ 3 (10 mg intermittent, n = 33) | Blood creatinine increased, grade ≥ 3 (10 mg intermittent, n = 33) | Conjunctivitis, grade ≥ 3 (10 mg intermittent, n = 33) | Constipation, grade ≥ 3 (10 mg intermittent, n = 33)
23 no.: Dysgeusia, grade 1 (8 mg continuous, n = 99) | Hand-foot syndrome, any grade (8 mg continuous, n = 99)
31 no.: Diarrhea, grade 1 (8 mg continuous, n = 99)
8 no.: Dry skin, grade 2 (8 mg continuous, n = 99) | Dyspnea, any grade (8 mg continuous, n = 99) | Lacrimation increased, grade 1 (8 mg continuous, n = 99) | Oropharyngeal pain, grade 1 (8 mg continuous, n = 99) | Pyrexia, grade 1 (8 mg continuous, n = 99) | Weight decreased, grade 2 (8 mg continuous, n = 99) | Anemia, any grade (10 mg intermittent, n = 33) | Constipation, grade 1 (10 mg intermittent, n = 33)
37 no.: Dysgeusia, any grade (8 mg continuous, n = 99)
16 no.: Nail dystrophy, any grade (8 mg continuous, n = 99) | Urinary tract infection, any grade (8 mg continuous, n = 99)
14 no.: Dry eye, grade 1 (8 mg continuous, n = 99) | Constipation, any grade (10 mg intermittent, n = 33)
13 no.: Dysgeusia, grade 2 (8 mg continuous, n = 99) | Nausea, grade 1 (8 mg continuous, n = 99) | Pyrexia, any grade (8 mg continuous, n = 99) | Vomiting, any grade (8 mg continuous, n = 99)
